± gives the standard deviation of the reports.
Going from `*Oc1ccc(S(=O)(=O)N(C)CCCCN(C)S(=O)(=O)c2ccc(Oc3ccc(C(C)(C)c4ccc(*)cc4)cc3)cc2)cc1` (repeat unit) to `*Oc1ccc(C(C)(C)c2ccc(Oc3ccc(C(=O)c4cccc(C(=O)c5ccc(*)cc5)c4)cc3)cc2)cc1` (repeat unit), the glass transition temperature rises from 120.00 °C to 153.00 °C.

First: *c1cccc(OCCCCCCOc2cccc(N3C(=O)c4ccc(-c5ccc6c(c5)C(=O)N(*)C6=O)cc4C3=O)c2)c1 (repeat unit)
Second: *c1cccc(N2C(=O)c3ccc(-c4cccc5c4C(=O)N(*)C5=O)cc3C2=O)c1 (repeat unit)
The glass transition temperature of the first is lower: 153.00 °C for the first, 341.00 °C for the second.

Compared with `*c1ccc2c(c1)C(=O)N(c1ccc(OCCCCOc3ccc(N4C(=O)c5ccc(C(*)(C(F)(F)F)C(F)(F)F)cc5C4=O)cc3)cc1)C2=O` (repeat unit), `*c1ccc2c(c1)C(=O)N(c1ccc(Oc3ccc(N4C(=O)c5ccc(C(F)(F)C(F)(F)C(F)(F)C(*)(F)F)cc5C4=O)cc3)cc1)C2=O` (repeat unit) is higher in glass transition temperature: 169.00 °C for the first, 212.00 °C for the second.

Going from `*c1cc(CCCCCCCCCCCC)c(*)s1` (repeat unit) to `*Oc1cc(CCCCCCCCCCCCC)cc(OC(=O)c2cccc(C(*)=O)c2)c1` (repeat unit), the glass transition temperature rises from -24.2 ± 8.1 °C to 25.50 °C.

Compared with `*c1cccc(-c2nc3cc(-c4ccc5nc(*)c(-c6ccc7ccccc7c6)nc5c4)ccc3nc2-c2ccc3ccccc3c2)c1` (repeat unit), `*c1ccc(OCCCCCCN(CC)c2ccc(C(C#N)=C(C#N)C#N)cc2)c(-c2cc(-c3ccccc3)c3cc(Oc4ccc5nc(*)cc(-c6ccccc6)c5c4)ccc3n2)c1` (repeat unit) is lower in glass transition temperature: 317.00 °C for the first, 175.00 °C for the second.

First: */C(C#N)=C/c1ccc(N(CC)Cc2ccccc2CN(CC)c2ccc(/C=C(\C#N)S(*)(=O)=O)cc2)cc1 (repeat unit)
Second: *CCCCCOc1ccc(/C=C/C(=O)OCCN(CCOC(=O)/C=C/c2ccc(O*)cc2)c2ccc(/N=N/c3ccc([N+](=O)[O-])cc3)cc2)cc1 (repeat unit)
The glass transition temperature of the first is higher: 190.00 °C for the first, 92.00 °C for the second.

First: *c1cccc(P(C)(=O)c2cccc(N3C(=O)c4ccc(NC(=O)OCCOc5c(Br)cc(C(C)(C)c6cc(Br)c(OCCOC(=O)Nc7ccc8c(c7)C(=O)N(*)C8=O)c(Br)c6)cc5Br)cc4C3=O)c2)c1 (repeat unit)
Second: *c1ccc(C(=O)Nc2cccc(S(=O)(=O)c3cccc(NC(=O)c4ccc(N5C(=O)c6ccc(-c7ccc8c(c7)C(=O)N(*)C8=O)cc6C5=O)cc4)c3)c2)cc1 (repeat unit)
The glass transition temperature of the first is lower: 191.00 °C for the first, 256.00 °C for the second.

Going from `*CCCc1ccc(-c2c(-c3ccccc3)cc(-c3ccc(-c4cc(-c5ccccc5)c(-c5ccc(*)cc5)c(-c5ccccc5)c4-c4ccccc4)cc3)c(-c3ccccc3)c2-c2ccccc2)cc1` (repeat unit) to `*c1ccc(Oc2ccc(C(=O)c3ccc(C(=O)c4ccc(Oc5ccc(-c6nc(-c7cccc(-c8nc(*)c(-c9ccccc9)[nH]8)c7)[nH]c6-c6ccccc6)cc5)cc4)cc3)cc2)cc1` (repeat unit), the glass transition temperature falls from 290.00 °C to 262.00 °C.

Compared with `*OC(COC(=O)C12CC3CC(CC(C(*)=O)(C3)C1)C2)COc1ccc(/N=N/c2ccc(C#N)cc2)cc1` (repeat unit), `*CC(*)(C)C(=O)OCCc1ccc(/N=N/c2ccc(OC(F)(F)F)cc2)cc1` (repeat unit) is higher in glass transition temperature: 105.00 °C for the first, 209.50 °C for the second.

Going from `*C(=O)c1ccc(N(*)CCC)cc1` (repeat unit) to `*CC(*)OC(=O)c1ccc(C(C)(C)C)cc1` (repeat unit), the glass transition temperature falls from 136.00 °C to 121.00 °C.

Compared with `*CC(*)(C)C(=O)OCCCCC(F)(F)C(F)(F)C(F)(F)C(F)(F)C(F)(F)C(F)(F)F` (repeat unit), `*CC(*)(F)C(=O)OCC(F)(F)C(F)(F)C(F)(F)F` (repeat unit) is higher in glass transition temperature: 23.00 °C for the first, 75.00 °C for the second.

Compared with `*c1c(C)cc(-c2cc(C)c(N3C(=O)c4ccc(-c5ccc6c(c5)C(=O)N(*)C6=O)cc4C3=O)c(C)c2)cc1C` (repeat unit), `*C(=O)c1ccc2c(c1)C(=O)N(c1ccc(N3C(=O)c4ccc(*)cc4C3=O)cc1)C2=O` (repeat unit) is higher in glass transition temperature: 285.00 °C for the first, 325.00 ± 11 °C for the second.

Compared with `*CCCCCCNC(=O)CCCCCCCCCCC(=O)N*` (repeat unit) [Poly(iminohexamethyleneiminododecanedioyl)], `*c1ccc(NC(=O)CCCCCCCCC(=O)Nc2ccc(S(*)(=O)=O)cc2)cc1` (repeat unit) is higher in glass transition temperature: 45.92 ± 0.1 °C for the first, 72.34 °C for the second.

Going from `*Oc1cccc2ccc(Oc3ccc(NC(=O)c4ccc(Oc5ccccc5Oc5ccc(C(=O)Nc6ccc(*)cc6)cc5)cc4)cc3)cc12` (repeat unit) to `*c1ccc(Oc2ccc(C(=O)c3ccc(C(=O)c4ccc(Oc5ccc(-c6nc(-c7ccccc7)[nH]c6*)cc5)cc4)cc3)cc2)cc1` (repeat unit), the glass transition temperature rises from 180.00 °C to 248.00 °C.

First: *Nc1cc(NC(=O)c2cc(OCCN(C)c3ccc(S(=O)(=O)C(F)(F)C(F)(F)C(F)(F)C(F)(F)C(F)(F)C(F)(F)C(F)(F)C(F)(F)F)cc3)cc(C(*)=O)c2)cc(C(=O)OCCN(C)c2ccc(C#N)cc2)c1 (repeat unit)
Second: *C(=O)OCCCCOC(=O)c1ccc(NC(=O)c2ccc(N3C(=O)c4ccc(*)cc4C3=O)cc2)cc1 (repeat unit)
The glass transition temperature of the first is higher: 157.00 °C for the first, 130.00 °C for the second.

Compared with `*CCCCCCCC(c1ccc(O)cc1)C(*)c1ccc(O)cc1C` (repeat unit), `*CCOCCOCCOC(=O)c1ccc(-c2ccc(C(=O)O*)cc2)cc1` (repeat unit) is higher in glass transition temperature: 4.00 °C for the first, 20.00 °C for the second.

Going from `*c1ccc2oc(-c3ccc(-c4nc5cc(C(*)(C(F)(F)F)C(F)(F)F)ccc5o4)cc3)nc2c1` (repeat unit) to `*c1ccc(C(c2ccc(N3C(=O)c4ccc(Oc5ccc6c(c5)C(=O)N(*)C6=O)cc4C3=O)cc2)(C(F)(F)F)C(F)(F)F)cc1` (repeat unit), the glass transition temperature falls from 371.50 °C to 305.00 °C.

Compared with `*CC(*)C(=O)NCP(=O)(O)O` (repeat unit), `*CC(*)C(=O)Nc1ccc(C(=O)/C=C/c2cccc(Br)c2)cc1` (repeat unit) is higher in glass transition temperature: 26.00 °C for the first, 55.00 °C for the second.

Going from `*Oc1ccccc1C(=O)OC(=O)c1ccccc1OC(=O)C(CC)C(CC)C(*)=O` (repeat unit) to `*Oc1cc(OC(=O)c2ccc(OCCC)cc2)c(OC(=O)CCCC(*)=O)cc1OC(=O)c1ccc(OCCC)cc1` (repeat unit), the glass transition temperature rises from 23.00 °C to 72.00 °C.

First: *Oc1ccc(-c2ccc(Oc3ccc(Oc4ccc(S(=O)(=O)c5ccc(Oc6ccc(*)cc6)cc5)cc4)cc3)c3ccccc23)c2ccccc12 (repeat unit)
Second: *C(=O)Nc1ccc(Oc2ccccc2-c2ccccc2Oc2ccc(NC(=O)c3ccc4c(c3)C(=O)N(c3ccc(Oc5cccc(Oc6ccc(N7C(=O)c8ccc(*)cc8C7=O)cc6)c5)cc3)C4=O)cc2)cc1 (repeat unit)
The glass transition temperature of the first is lower: 214.00 °C for the first, 229.00 °C for the second.

Going from `*C(C)C(*)C(=O)OCCC` (repeat unit) to `*CC(*)(Cl)C(=O)OCC` (repeat unit) [Poly(ethyl a-chloroacrylate) ], the glass transition temperature falls from 116.00 °C to 92 ± 4.8 °C.

Going from `*/C=C/C1CC(*)C2C(=O)N(CCC)C(=O)C12` (repeat unit) to `*CC1CCCC(Cn2c(=O)c3cc4c(=O)n(*)c(=O)c4cc3c2=O)C1` (repeat unit), the glass transition temperature rises from 139.00 °C to 263.00 °C.

Going from `*Oc1ccc(C(CCC)c2ccc(OC(*)=S)cc2)cc1` (repeat unit) to `*Oc1ccc(Cc2ccc(OC(=O)c3cc(OCCCCC)cc(C(*)=O)c3)cc2)cc1` (repeat unit), the glass transition temperature falls from 130.00 °C to 110.00 °C.

Compared with `*c1ccc(Oc2ccc(Oc3ccc(N4C(=O)c5ccc(-c6cccc7c6C(=O)N(*)C7=O)cc5C4=O)cc3)cc2)cc1` (repeat unit), `*c1ccc(Oc2ccc(C3(c4ccc(Oc5ccc(N6C(=O)c7ccc(Oc8c(C)cc(C(C)(C)c9cc(C)c(Oc%10ccc%11c(c%10)C(=O)N(*)C%11=O)c(C)c9)cc8C)cc7C6=O)cc5)cc4)CC4CC3C3CCCC43)cc2)cc1` (repeat unit) is lower in glass transition temperature: 285.00 °C for the first, 262.00 °C for the second.

Going from `*CCN(CCN1C(=O)c2ccc(C(c3ccc4c(c3)C(=O)N(*)C4=O)(C(F)(F)F)C(F)(F)F)cc2C1=O)c1ccc(/N=N/c2ccc(C3OCCO3)cc2)cc1` (repeat unit) to `*c1cccc(P(=O)(c2ccc(C(F)(F)F)cc2)c2cccc(-n3c(=O)c4cc5c(=O)n(*)c(=O)c5cc4c3=O)c2)c1` (repeat unit), the glass transition temperature rises from 178.00 °C to 311.00 °C.

First: *CC(*)(C)C(=O)OCCOCCOCCOCCOCCOCCOCCOCCOC (repeat unit)
Second: *c1ccc(C(=O)OCCCCCCCCCCOc2ccc(/C=C3\CC/C(=C\c4ccc(OCCCCCCCCCCOC(=O)c5ccc(-c6nnc(*)o6)cc5)cc4)C3=O)cc2)cc1 (repeat unit)
The glass transition temperature of the first is lower: -58.00 °C for the first, 58.00 °C for the second.

Going from `*Oc1c(C)cc(*)cc1C` (repeat unit) to `*CC(*)OC(=O)c1ccccc1OC` (repeat unit), the glass transition temperature falls from 212.00 °C to 65.00 °C.

Compared with `*CC(*)(CC(=O)OC1CCC1)C(=O)OC1CCC1` (repeat unit), `*CC(*)OC(=O)CC1CCCC1` (repeat unit) is lower in glass transition temperature: 60.00 °C for the first, -3.00 °C for the second.

First: *C[Si](*)(CCCCCC)CCCCCC (repeat unit)
Second: *CCCCCCN(C(=O)C(F)(F)C(F)(F)C(F)(F)C(=O)N(*)C(C)C)C(C)C (repeat unit)
The glass transition temperature of the first is lower: -56.00 °C for the first, 142.50 °C for the second.

Compared with `*CCCCCCOc1c(OC)cc(/C=C/c2ccc(/C=C/c3cc(OC)c(O*)c(OC)c3)cc2)cc1OC` (repeat unit), `*Oc1ccc(C(=O)c2cccc(NC(=O)CCCCCCCCC(=O)Nc3ccc(C(=O)c4ccc(*)cc4)cc3)c2)cc1` (repeat unit) is higher in glass transition temperature: 90.00 °C for the first, 148.00 °C for the second.

Going from `*Cc1ccc(C(C)(CCC)c2ccc(Cn3c(=O)c4cc5c(=O)n(*)c(=O)c5cc4c3=O)o2)o1` (repeat unit) to `*Cc1ccc(C(C)c2ccc(Cn3c(=O)c4cc5c(=O)n(*)c(=O)c5cc4c3=O)o2)o1` (repeat unit), the glass transition temperature falls from 134.00 °C to 116.00 °C.

In the case of `*ON(C(F)(F)F)C(F)(C(*)(F)F)C(F)(F)F` (repeat unit), the glass transition temperature is reported as -9.00 °C.

Reference: the PolyMetriX glass transition set
